Data set [1] concerns Rattus norvegicus. As to the kind of experiment: Tested for the inhibition of Tumor necrosis factor alpha production after intravenous administration to rat. The format is functional. The conditions noted are these: read-out: ID50 (the source's name).
Data set [2] concerns Rattus norvegicus. Briefly: Tested for minimum effective dose in D-(+)-Galactosamine/ LPS-induced hepatitis model in rat after intravenous dosage of 1 g/ 7.5 ug/ 5 mL/kg; survival rate=8/18. The format is functional. The settings on record: read-out: MED.
Data set [3] relates to Mus musculus. Briefly: Tested for minimum effective dose in LPS-induced shock model in mice after intravenous administration at a dose of 5 mg / kg; survival rate=10/18. The format is functional. The conditions noted are these: read-out: MED.
Data set [4] in a line: Tested for the safety in rats reported as minimum lethal dose; mortality rate=1/3. The class given is ADME. The settings on record: rat, in vivo.
Data set [5] relates to Rattus norvegicus. Briefly: Tested for the inhibition of umor necrosis factor alpha production after intravenous administration at the dosage of 30 mg/kg to rat. The format is functional.
Data set [6] is described as follows: Tested for the safety in rats reported as minimum lethal dose; mortality rate=0/3. The class given is ADME. The conditions noted are these: rat, in vivo.
Data set [7] has as its system Mus musculus. Briefly: Tested for minimum effective dose in LPS-induced shock model in mice after intravenous administration at a dose of 5 mg / kg; survival rate=14/20. The conditions noted are these: read-out: MED. The format is functional.
Data set [8] deals with Rattus norvegicus. Briefly: Tested for minimum effective dose in D-(+)-Galactosamine/ LPS-induced hepatitis model in rat after intravenous dosage of 1 g/ 7.5 ug/ 5 mL/kg; survival rate=6/18. The class given is functional. The settings on record: read-out: MED.
Data set [9] deals with Mus musculus. Briefly: Tested for the inhibition of Tumor necrosis factor alpha production after intravenous administration in mice. The format is functional. The conditions noted are these: read-out: ID50 (the source's name).
Data set [10] relates to Rattus norvegicus. Briefly: Tested for the inhibition of Tumor necrosis factor alpha production after intravenous administration at the dosage of 10 mg/kg to rat. The settings on record: for inhibition in vivo at 10 mg/kg: Rattus norvegicus. The class given is functional.
In data set [11] the test system is Mus musculus. Briefly: Tested for the inhibition of Tumor necrosis factor alpha production after intravenous administration at the dosage of 10 mg/kg to mice; no activity was observed. The format is functional.
The test system of data set [12] is Rattus norvegicus. Briefly: Tested for minimum effective dose in D-(+)-Galactosamine/ LPS-induced hepatitis model in rat after intravenous dosage of 1 g/ 7.5 ug/ 5 mL/kg; survival rate=7/18. The format is functional. The settings on record: read-out: MED.
The subject of data set [13] is Rattus norvegicus. As to the kind of experiment: Tested for the inhibition of Inhibitor of Tumor necrosis factor alpha production after intravenous administration to rat. The class given is functional. The settings on record: read-out: ID50 (the source's name).

The source of these data is ChEMBL document CHEMBL1135964, “Highly potent inhibitors of TNF-alpha production. Part 2: identification of drug candidates” (Bioorg Med Chem Lett, 2002).

As usually defined, the inhibition in vivo is the change of the read-out against control, counted positive when it falls. The Inhibition is the drop in the measured response relative to a control, in per cent. Low readings indicate a response near the control, high ones a response far below the control.

As to `CCCCCCCC(=O)N[C@@H](COP(=O)([O-])[O-])c1cccc(OC)c1.[Na+].[Na+]`, the ED50 in data set [1] stood at 0.26 mg/kg.

Regarding `CCCCCCCC(=O)N[C@H](c1cccc(OC(C)C)c1)[C@H](C)OP(=O)([O-])[O-].[Na+].[Na+]`, the ED50 in [1] was 0.05 mg/kg. Further, the minimal effective dose in data set [2] and in data set [3] was 0.3 mg/kg in each case. Further, the MLD in [4] came out at 100 mg/kg. As for `CCCCCCCC(=O)N(C)[C@@H](COP(=O)([O-])[O-])c1ccccc1.[Na+].[Na+]`, in [1], the ED50 worked out at 9.8 mg/kg. With `CCCCCCCC(=O)N[C@@H](c1ccccc1)[C@H](C)OP(=O)(O)O`, in data set [5], the inhibition in vivo at 30 mg/kg is 17%. Regarding `CCCCCCOC(=O)N[C@H](c1cccc(OC)c1)[C@H](C)OP(=O)([O-])[O-].[Na+].[Na+]`, the ED50 in data set [1] turned out to be 0.02 mg/kg. In addition, in data set [6], the MLD was more than 100 mg/kg. Also, the minimal effective dose in data set [7] and in data set [8] was 0.1 mg/kg each time. For the compound `CCCCCCCC(=O)N[C@H](c1ccccc1)C1(OP(=O)([O-])[O-])CCC1.[Na+].[Na+]`, the ED50 in data set [9] stood at 9.5 mg/kg. For the compound `CCCCCCCC(=O)N[C@H](c1cccc(OC)c1)C(C)(C)OP(=O)(O)O`, the inhibition in vivo at 10 mg/kg in [10] came out at 12%. In the case of `CCCCCCCC(=O)N[C@@H](COP(=O)([O-])[O-])c1ccccc1.[Na+].[Na+]`, the ED50 in data set [1] worked out at 3 mg/kg.

Take `CCCCCCCC(=O)N[C@@H](CO)c1ccccc1`: in [11], the inhibition in vivo at 10 mg/kg was 14%. As to `CCCCCCCC(=O)N[C@@H]1c2ccccc2C[C@H]1OP(=O)([O-])[O-].[Na+].[Na+]`, the ED50 in data set [1] came out at 2.4 mg/kg. On to `CCCCCCCC(=O)N[C@@H](c1cccc(OC)c1)[C@@H](C)OP(=O)(O)O`, for which the inhibition in vivo at 10 mg/kg in [10] turned out to be 38%. Take `CCCCCCCC(=O)N[C@@H](c1cccc(OC)c1)[C@H](C)OP(=O)([O-])[O-].[Na+].[Na+]`: the ED50 in [1] came to 3.7 mg/kg. On the same count and under the same terms, the same measure for `CCCCCCCC(=O)N[C@H](c1ccccc1)[C@H](C)OP(=O)([O-])[O-].[Na+].[Na+]`: 4.5 mg/kg. Turning to `CCCCCCCC(=O)N[C@H](c1ccccc1)[C@H](CO)OP(=O)(O)O`, the inhibition in vivo at 10 mg/kg in data set [10] amounted to 42%. Regarding `CCCCCCCC(=O)N[C@H](c1ccccc1)[C@@H](C)OP(=O)(O)O`, in [5], the inhibition in vivo at 30 mg/kg was found to be 23%. In turn, `CCCCCCCC(=O)N[C@@H]1c2ccccc2C[C@@H]1OP(=O)([O-])[O-].[Na+].[Na+]` displayed an Inhibition in data set [10] of 34%. For `CCCCCCCC(=O)N[C@H](c1cccc(OC)c1)[C@H](C)OP(=O)([O-])[O-].[Na+].[Na+]`, the minimal effective dose in [12] worked out at 0.3 mg/kg; in [3] it was 0.1 mg/kg. The compound further yielded an MLD in data set [6] of more than 100 mg/kg. Moreover, the ED50 in data set [13] is 0.03 mg/kg. Turning to `CCCCCCCC(=O)N[C@H](c1cccc(OC)c1)[C@@H](C)OP(=O)(O)O`, the inhibition in vivo at 10 mg/kg in data set [10] is -13%. Take `CCCCCCCC(=O)N[C@@H](c1ccccc1)[C@@H](C)OP(=O)(O)O`: the inhibition in vivo at 30 mg/kg in data set [5] turned out to be 5%. As for `CCCCCCCC(=O)N[C@H](c1ccccc1)[C@@H](OP(=O)(O)O)c1ccccc1`, in [10], the inhibition in vivo at 10 mg/kg is 3%.
